{
  "source": "ChEMBL document CHEMBL5727835",
  "about": "“Alkynyl dihydroquinoline sulfonamide compounds” (2020)",
  "key": {"[1]": {"assay": "Nav 1.7 or Nav 1.5 IWQ In Vitro Assay: HEK 293 Cells stably transfected with either Nav 1.7 or Nav 1.5 were recorded in population patch-clamp mode with the IonWorks® Quattro automated electrophysiology system in accordance with the manufacturer's specifications (Molecular Devices, LLC, Sunnyvale, Calif.). Sodium channel currents were measured in response to a train of depolarizations that induced successively greater inactivation.Cells were held at −110 mV for three seconds (Nav 1.7) or half a second (Nav 1.5) from a holding voltage of −15 mV, then put through a series of 26 pulses of 150 msec duration to −20 mV at a frequency of 5 Hz. Cells were then left unclamped for a period of 3 to 8 minutes while a single concentration of test compound was added. Cells were then reclamped and put through the same voltage protocol. Current at the end of the 26th pulse to −20 mV was subtracted from the peak current evoked by the 26th pulse to −20 mV to correct for leak current. Percent block was calculated for each concentration in duplicate, and IC50 curves were fitted to percent block as a function of concentration.", "details": "HEK293"}, "[2]": {"assay": "Nav 1.7 In Vitro PX Assay: HEK 293 cells stably transfected with human Nav1.7 were recorded in whole cell voltage clamp mode with the PatchXpress automated electrophysiology system (Molecular Devices, LLC, Sunnyvale, Calif.). Compound effects were measured on a partially inactivated state of the sodium channel. Cells were clamped to a holding potential yielding 20 to 50% inactivation. To elicit sodium current, channels were activated by pulsing to −10 mV for 20 msec. This voltage protocol was repeated at a rate of 0.1 Hz throughout the experiment. A single concentration of test compound was applied to cells for a duration of 3 minutes. Peak sodium current was measured at the end of the compound addition period to determine percent inhibition. Three to five cells were tested per concentration, and IC50 curves were fitted to percent inhibition as a function of concentration.", "details": "HEK293"}},
  "data": [
    {"smiles": "COc1cc(C#CC2CCCC2)c(F)cc1-n1c(=O)ccc2cc(S(=O)(=O)Nc3ccon3)ccc21", "values": [
      {"measurement": "IC50", "setting": "[1]", "value": 0.00453, "unit": "µM"},
      {"measurement": "IC50", "setting": "[2]", "value": 0.0173, "unit": "µM"}
    ]},
    {"smiles": "COc1cc(C#CC2(OCC(F)(F)F)CCCC2)c(F)cc1-n1c(=O)ccc2cc(S(=O)(=O)Nc3ccon3)ccc21", "values": [
      {"measurement": "IC50", "setting": "[1]", "value": 0.00973, "unit": "µM"},
      {"measurement": "IC50", "setting": "[2]", "value": 0.0338, "unit": "µM"}
    ]},
    {"smiles": "COc1cc(C#CC2CCCC2)c(Cl)cc1-n1c(=O)ccc2cc(S(=O)(=O)Nc3ccon3)ccc21", "values": [
      {"measurement": "IC50", "setting": "[1]", "value": 0.01, "unit": "µM"},
      {"measurement": "IC50", "setting": "[2]", "value": 0.0186, "unit": "µM"}
    ]},
    {"smiles": "COc1cc(C#C[C@H]2C[C@@H]2C(F)(F)F)c(F)cc1-n1c(=O)ccc2cc(S(=O)(=O)Nc3ccon3)ccc21", "values": [
      {"measurement": "IC50", "setting": "[2]", "value": 0.21, "unit": "µM"}
    ]},
    {"smiles": "COc1cc(C#C[C@@H]2C[C@@H]2C(F)(F)F)c(F)cc1-n1c(=O)ccc2cc(S(=O)(=O)Nc3ccon3)ccc21", "values": [
      {"measurement": "IC50", "setting": "[1]", "value": 0.0055, "unit": "µM"},
      {"measurement": "IC50", "setting": "[2]", "value": 0.139, "unit": "µM"}
    ]},
    {"smiles": "COc1cc(C#CC2(C(F)(F)F)CC2)c(F)cc1-n1c(=O)ccc2cc(S(=O)(=O)Nc3ccon3)ccc21", "values": [
      {"measurement": "IC50", "setting": "[1]", "value": 0.008, "unit": "µM"}
    ]}
  ]
}
